In patent US20160095802A1, “COMBINATION OF PETROSELINIC ACID AND ZINC FOR ORAL ADMINISTRATION FOR HAIR AGING CONTROL” (NUTRICOS TECHNOLOGIES, priority 2013, published 2016):

Test system: Lipoxin A4 production in human mononuclear cells
Assay: Lipoxin A4 production in stimulated human mononuclear blood cells in vitro (LC-MS of supernatants)
Format: cell-based
Details: coriander oil 0.25 mg/ml, zinc gluconate 0.005 mg/ml; 30 min pre-incubation, then 2 hours stimulation with phorbol myristate 0.05 μM + calcium ionophore 1 μM + DHA/EPA 1 μg/mL each; triplicates
Description: Mononuclear blood cells are cultured under 5% CO2 and at 37° C. in a serum-free medium for macrophages (SFM Macrophage; Invitrogen 12065074) for 24 hours. After this step, the medium is replaced with the same fresh test medium also containing the active agents at the various doses for 30 minutes in the presence of the various products to be evaluated (coriander oil 0.25 mg/ml, zinc gluconate ([…]. The inflammatory response was then triggered in the presence of phorbol myristate (0.05 μM) and calcium ionophore (1 μM) and a lipid substrate mixture composed of docosahexaenoic acid (DHA—1 μg/mL) and eicosapentaenoic acid (EPA—1 μg/mL).
The supernatants were then collected after 2 hours of stimulation and frozen at −80° C. before preparation for analysis by mass spectrometry.
Experimental triplicates (three wells) were prepared per experimental condition. Into each culture plate was placed a control corresponding to cells stimulated with the PMA/A23187 mixture and/or with addition of the equimolar mixture of fatty acids.
The thawed supernatants were concentrated by solid-phase extraction (SPE) and taken up in methanol before spectrometric analysis. The analytical method used consists in separating the various analytes by high-pressure liquid chromatography as a function of their retention time and in quantifying them by mass spectrometry. […]

Zinc gluconate
Level of lipoxin A4 production (% modulation relative to the control): −5%
